Where two headings read alike, the source gives them in different places.
How the values were obtained:
[1] = test system: NCI-H1975 (L858R/T790M double mutant EGFR); assay: Test 3: Proliferation Test of L858R/T790M EGFR (double mutant) cells (Cell Titer-Glo); assay type: cell-based, human; details: for IC50: Homo sapiens, NCI-H1975 cells, 72 hours; for Ratio of IC50 value of Test 2 to that of Test 3: selectivity: wild-type EGFR cells vs L858R/T790M EGFR (double mutant) cells
Protocol: (§1) NCI-H1975 cells are cultured in RPMI1640 medium containing 10% fetal bovine serum and 2 mM glutamine. Cells are grown in a humidified incubator with 5% CO2 at 37°C.
(§2) The number of viable cells in the culture is determined according to the protocol described in Cell Titer-Glo Luminescent cell Viability Assay (Promega catalog number: # G7570) of Promega company. 90 µl of cells (8000 cells/well) are cultured in growth medium in a Corning 96-well plate with black transparent bottom, culturing in a humidified incubator with 5% CO2 at 37°C overnight. The compound serially diluted in 100% DMSO is added to the cells by pipette, culturing the cells for another 72 hours. 100 µl of the mixed Cell Titer-Glo reagent is added to the cells in the 96-well culture plate to lyse the cells, mixing gently. Subsequently, the […] is detected on the Envision microplate detector to obtain data of the compound. Finally, the data is input into a suitable software package (such as Prism) for curve fitting analysis.

[2] = biological target: T1, L858R/T790M EGFR (double mutant) (Homo sapiens, UniProt P00533, L858R/T790M); assay: Test 1: Phosphorylation Test of L858R/T790M EGFR (double mutant) Cells (phospho-EGFR ELISA); assay type: cell-based; details: NCI-H1975 cells, p-EGFR in cell lysate, compound incubation 2 hours
T1 construct: The detection of phosphorylated p-EGFR of endogenous cells in cell lysate; host or cells: NCI-H1975
T1 sequence (P00533 25-1210 T790M/L858R): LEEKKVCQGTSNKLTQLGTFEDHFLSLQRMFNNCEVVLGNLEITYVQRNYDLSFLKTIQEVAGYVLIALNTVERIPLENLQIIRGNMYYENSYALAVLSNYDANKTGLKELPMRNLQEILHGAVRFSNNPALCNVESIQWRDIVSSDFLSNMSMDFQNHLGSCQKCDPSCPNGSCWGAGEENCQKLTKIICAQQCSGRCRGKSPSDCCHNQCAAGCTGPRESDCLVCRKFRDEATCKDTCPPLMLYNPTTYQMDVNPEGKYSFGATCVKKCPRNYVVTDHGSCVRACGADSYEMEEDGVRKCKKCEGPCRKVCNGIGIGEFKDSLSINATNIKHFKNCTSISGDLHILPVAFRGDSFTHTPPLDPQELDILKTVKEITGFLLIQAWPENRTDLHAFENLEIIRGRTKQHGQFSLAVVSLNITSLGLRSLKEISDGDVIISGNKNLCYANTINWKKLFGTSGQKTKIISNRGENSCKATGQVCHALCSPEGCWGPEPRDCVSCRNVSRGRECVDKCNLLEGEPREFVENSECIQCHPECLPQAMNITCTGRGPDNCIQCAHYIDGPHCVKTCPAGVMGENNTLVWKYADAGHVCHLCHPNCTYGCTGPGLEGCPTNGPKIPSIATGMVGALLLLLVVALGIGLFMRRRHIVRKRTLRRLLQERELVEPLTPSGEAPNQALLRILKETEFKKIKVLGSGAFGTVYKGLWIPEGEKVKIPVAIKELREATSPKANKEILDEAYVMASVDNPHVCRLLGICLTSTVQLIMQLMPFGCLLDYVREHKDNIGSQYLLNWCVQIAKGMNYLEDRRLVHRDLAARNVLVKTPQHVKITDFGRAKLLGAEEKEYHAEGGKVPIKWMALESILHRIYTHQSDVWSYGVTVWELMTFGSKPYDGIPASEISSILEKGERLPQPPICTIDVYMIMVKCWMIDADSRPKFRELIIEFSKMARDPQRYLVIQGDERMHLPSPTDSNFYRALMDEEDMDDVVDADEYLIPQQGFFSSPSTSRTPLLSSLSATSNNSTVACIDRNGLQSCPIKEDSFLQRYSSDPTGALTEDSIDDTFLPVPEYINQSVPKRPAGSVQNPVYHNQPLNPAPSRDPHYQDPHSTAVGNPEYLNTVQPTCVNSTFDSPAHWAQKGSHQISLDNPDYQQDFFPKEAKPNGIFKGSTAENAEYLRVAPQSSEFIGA
Protocol: as §1
The detection of phosphorylated p-EGFR of endogenous cells in cell lysate is performed according to the protocol described in the DuoSet IC Human Phospho-EGFR ELISA (R&D Systems catalog number: # DYC1095) of R&D Systems Company. 90 µl of cells (8000 cells/well) are cultured in growth medium in a Corning 96-well plate with black transparent bottom, after culturing in a humidified incubator with 5% CO2 at 37°C overnight, the cell culture medium is replaced with RPMI1640 medium containing 1% fetal bovine serum and 2 mM glutamine to culture continuously. The compound serially diluted in 100% DMSO is added to the cells by pipette, and after gently mixing the medium, the cells are incubated for another 2 hours. 100 µl of 1X lysis buffer is added to each well. Greiner high-binding 96-well plates are coated with capture antibody, and then blocked with 3% BSA. After removing the blocking solution, 100 µl of lysate is transferred to a Greiner high-binding 96-well plate, then incubating for 2 hours. After gently mixing and washing the culture plate with PBS, 100 µl of detection antibody is added, then incubating for 2 hours. […] 100 µl of stop solution is added to the culture plate, and the absorbance of each well at 450 nm wavelength is measured. Finally, the data is input into a suitable software package (such as Prism) for curve fitting analysis.

A431 (wild-type EGFR) = assay: Test 2: Proliferation Test of Wild-type EGFR Cells (Cell Titer-Glo); assay type: cell-based; details: Homo sapiens, read-out: IC50 value, Test 2
Protocol: The human […] cell line A431 (wild-type EGFR) is obtained from the American Type Culture Collection. […] cells are cultured in RPMI1640 medium containing 10% fetal bovine serum and 2 mM glutamine. Cells are grown in a humidified incubator with 5% CO2 at 37°C.
as §2

[3] = Test 6: Test of Plasma Protein Binding Rate (equilibrium dialysis), mouse plasma; assay type: in vitro ADME; details: equilibrium dialysis at 37°C for 4 hours, read-out: % Unbound of mouse plasma sample in Test 6
Protocol: (§3) The test of plasma protein binding rate is performed by using the 96-well equilibrium dialysis device from HTDialysis Company. The human plasma samples or mouse plasma samples with a concentration of 2 µM for the test and control compounds are performed equilibrium dialysis at 37°C for 4 hours so as to conduct the protein binding study. 150 µL of plasma sample with the test compound is added to the administration end of each dialysis well, and 150 µL of blank dialysis buffer is added to the receiving end corresponding to the dialysis well. The dialysis plate is then placed in a humidified incubator with 5% CO2 to incubate at 37°C for 4 hours. After dialysis, 50 µL of the dialyzed buffer sample and the dialyzed plasma sample are transferred to a new 96-well plate (sample receiving plate). The corresponding volume of corresponding blank plasma or buffer is added to the sample. All samples are analyzed by LC/MS/MS after protein precipitation. The concentration of the sample is expressed as the ratio of the peak area of the compound to the internal standard substance (semi-quantitative). Finally, the % Unbound, % Bound, and % Recovery of the compound are calculated according to the formula.

[4] = test system: Ba/F3-CAT-EGFR (wild-type EGFR) cells; assay: Test 4: Proliferation Test of BalF3-CAT-EGFR cells (Cell Titer-Glo); assay type: cell-based; details: 72 hours
From the text: (§4) BalF3-CAT-EGFR cell viability detection is based on the detection technology developed by CellTiter-Glo®. BalF3 cells are transformed by overexpressing the intracellular kinase region of wild-type EGFR to construct a CAT-EGFR tool cell strain. This cell strain lives depending on the kinase activity of EGFR, if the wild-type EGFR is inhibited by a small molecule compound, the cell strain will die. Therefore, the specificity and activity of EGFR small molecules on wild-type EGFR may be evaluated by observing the effect of EGFR small molecules on cell viability.
Ba/F3-CAT-EGFR (wild-type EGFR) cells are cultured in RPMI1640 medium containing 10% fetal bovine serum and 2 mM glutamine. Cells are grown in a humidified incubator with 5% CO2 at 37°C.
as §2, with “100” for “90”, “(3000” for “(8000”

[5] = Test 6: Test of Plasma Protein Binding Rate (equilibrium dialysis), human plasma; assay type: in vitro ADME; details: equilibrium dialysis at 37°C for 4 hours, read-out: % Unbound of human plasma sample in Test 6
Protocol: as §3

[6] = test system: BalF3-DTM-EGFR (mutant EGFR) cells; assay: Test 5: Proliferation Test of Ba/F3-DTM-EGFR cells (Cell Titer-Glo); assay type: cell-based; details: for Inhibitory selectivity of the compound, Ratio of IC50 value of Test 4 to IC50 value of Test 5: Ba/F3-CAT-EGFR vs Ba/F3-DTM-EGFR cells; for IC50: Ba/F3-DTM-EGFR cells (T790M mutation and Exon19-deficient EGFR), 72 hours
Protocol: as §4, with “Ba/F3-DTM-EGFR” for “BalF3-CAT-EGFR”, “BalF3 cells are transformed by overexpressing the intracellular kinase region of wild-type EGFR to construct a CAT-EGFR tool cell strain.” left out, “mutant” for “wild-type”
BalF3-DTM-EGFR (mutant EGFR) cells are cultured in RPMI1640 medium containing 10% fetal bovine serum and 2 mM glutamine. Cells are grown in a humidified incubator with 5% CO2 at 37°C.
as §2, with “100” for “90”, “(3000” for “(8000”

[7] = A-431, wild-type EGFR cells, 72 hours

| Structure (SMILES) | IC50 [1] [nM] | Ratio of IC50 value of Test 2 to that of Test 3 [1] | IC50 [2] [nM] | IC50 (A431 (wild-type EGFR); [7]) [nM] | fraction unbound at 4 h, 2 µM [3] | IC50 [4] [nM] | fraction unbound at 4 h, 2 µM [5] | Inhibitory selectivity of the compound, Ratio of IC50 value of Test 4 to IC50 value of Test 5 [6] | IC50 [6] [nM] | IC50 (A431 (wild-type EGFR); A-431, 72 h) [nM] |
| --- | --- | --- | --- | --- | --- | --- | --- | --- | --- | --- |
| C=CC(=O)Nc1cc(Nc2ncnc(-n3ccc4ncccc43)n2)c(OC)cc1N(C)CCN(C)C [Compound 6, N-(5-((4-(1H-pyrrolo[3,2-b]pyridin-1-yl)-1,3,5-triazin-2-yl)amino)-2-((2-(dimethylamino)ethyl)(methyl)amino)-4-methoxyphenyl)acrylamide] | 3 | 193 | 15.1 | 579 |  |  |  |  |  |  |
| C=CC(=O)Nc1cc(Nc2ncnc(N3CC(C)(C)c4ncccc43)n2)c(OC)cc1N(C)CCN(C)C [Compound 11, N-(5-((4-(3,3-dimethyl-2,3-dihydro-1H-pyrrolo[3,2-b]pyridin-1-yl)-1,3,5-triazin-2-yl)amino)-2-((2-(dimethylamino)ethyl)(methyl)amino)-4-methoxyphenyl)acrylamide] |  |  | 11.1 |  | 0.077 | > 10000 | 0.107 | >2941.18 | 3.4 |  |
| C=CC(=O)Nc1cc(Nc2ncnc(-n3cc(C)c4cnccc43)n2)c(OC)cc1N(C)CCN(C)C [Compound 18, N-(2-((2-(dimethylamino)ethyl)(methyl)amino)-4-methoxy-5-((4-(3-methyl-1H-pyrrolo[3,2-c)pyridin-1-yl)-1,3,5-triazin-2-yl)amino)phenyl)acrylamide] |  |  |  |  |  | > 10000 |  | > 1923.08 | 5.2 |  |
| C=CC(=O)Nc1cc(Nc2ncnc(-n3nc(C)c4ccc(F)cc43)n2)c(OC)cc1N(C)CCN(C)C [Compound 20, N-(2-((2-(dimethylamino)ethyl)(methyl)amino)-5-((4-(6-fluoro-3-methyl-1H-indazol-1-yl)-1,3 ,5-triazin-2-yl)amino)-4-methoxyphenyl)acrylamide] |  |  |  |  |  | > 10000 |  | > 1851.85 | 5.4 |  |
| C=CC(=O)Nc1cc(Nc2ncnc(-c3cnc4c(C)cccn34)n2)c(OC)cc1N(C)CCN(C)C [Compound 26, N-(2-((2-(dimethylamino)ethyl)(methyl)amino)-4-methoxy-5-((4-(8-methylimidazolo[1,2-a]pyridin-3-yl)-1,3,5-triazin-2-yl)amino)phenyl)acrylamide] | 4 | 179.5 | 12.1 | 718 |  | > 10000 |  | >2702.70 | 3.7 |  |
| C=CC(=O)Nc1cc(Nc2ncnc(-c3cnc4c(F)cccn34)n2)c(OC)cc1N(C)CCN(C)C [Compound 27, N-(2-((2-(dimethylamino)ethyl)(methyl)amino)-5-((4-(8-fluoroimidazolo[1,2-a]pyridin-3-yl)-1 ,3,5-triazin-2-yl)amino)-4-methoxyphenyl)acrylamide] | 5 | 176.6 | 11.8 | 883 |  | > 10000 |  | >3125.00 | 3.2 |  |
| C=CC(=O)Nc1cc(Nc2ncnc(-c3cnc4c(C(F)(F)F)cccn34)n2)c(OC)cc1N(C)CCN(C)C [Compound 28, N-(2-((2-(dimethylamino)ethyl)(methyl)amino)-4-methoxy-5-((4-(8-(trifluoromethyl)imidazolo[1,2-a]pyridin-3-yl)-1,3,5-triazin-2-yl)amino)phenyl)acrylamide] | 4 | 189.5 | 11.4 | 758 |  | > 10000 |  | >2500.00 | 4 |  |
| C=CC(=O)Nc1cc(Nc2ncnc(-n3nc(F)c4ccccc43)n2)c(OC)cc1N(C)CCN(C)C [Compound 29, N-(2-((2-(dimethylamino)ethyl)(methyl)amino)-5-((4-(3-fluoro-1H-indazol-1-yl)-1,3,5-triazin-2-yl)amino)-4-methoxyphenyl)acrylamide] | 4 | 235.3 | 10.6 | 941 |  | > 10000 |  | >2222.22 | 4.5 |  |
| C=CC(=O)Nc1cc(Nc2nccc(-c3cn(C)c4ccccc34)n2)c(OC)cc1N(C)CCN(C)C [Osimertinib (AZD9291), Osimertinib, reference compound] | […] |  |  |  | 0.005 | 3120 | 0.025 |  | 7.1 | […] |
